Patent US10980809B2, “Urea-substituted aromatic ring-linked dioxane-quinazoline and -linked dioxane-quinoline compounds, preparation method therefor and use thereof” (BEIJING SCITECH-MQ PHARMACEUTICALS LIMITED, priority 2017, dated 2021)

Each molecule was assayed against VEGFR-2 kinase (Homo sapiens (Human), UniProt P35968) (assay: Test of small molecule compounds for inhibiting the activity of VEGFR-2 kinase). Settings: class symbols A-D.
Assay type: biochemical
Method: Test of Small Molecule Compounds for Inhibiting the Activity of VEGFR-2 Kinase
The test was carried out as follows:
2. 2.5 μl of the gradient-diluted compounds was taken with a transfer pipette to a 384-well plate,
3. Addition of enzyme: 5 μl of 2×VEGFR-2 kinase was taken with a transfer pipette to the corresponding reaction well of the 384-well plate, which was mixed and pre-reacted at room temperature for 30 min,
5. Negative control: 2.5 μl/well 4× substrate/ATP Mix and 7.5 μl 1× Kinase Assay Buffer were added to the wells of the 384-well plate,
Positive control: 2.5 μl/well 4× substrate/ATP Mix, 2.5 μl/well 1× Kinase Assay Buffer containing 4% DMSO, and 5 μl/well 2×VEGFR-2 solution were added to the 384-well plate. The final concentration of DMSO in the reaction system is […],
6. The mixture was mixed well and then centrifuged and reacted at room temperature in dark for 60 min,
9. The 384-well plate was placed into the Envision plate reader and the signal was detected using the appropriate program,

Chain of VEGFR-2 kinase (P35968 20-1356): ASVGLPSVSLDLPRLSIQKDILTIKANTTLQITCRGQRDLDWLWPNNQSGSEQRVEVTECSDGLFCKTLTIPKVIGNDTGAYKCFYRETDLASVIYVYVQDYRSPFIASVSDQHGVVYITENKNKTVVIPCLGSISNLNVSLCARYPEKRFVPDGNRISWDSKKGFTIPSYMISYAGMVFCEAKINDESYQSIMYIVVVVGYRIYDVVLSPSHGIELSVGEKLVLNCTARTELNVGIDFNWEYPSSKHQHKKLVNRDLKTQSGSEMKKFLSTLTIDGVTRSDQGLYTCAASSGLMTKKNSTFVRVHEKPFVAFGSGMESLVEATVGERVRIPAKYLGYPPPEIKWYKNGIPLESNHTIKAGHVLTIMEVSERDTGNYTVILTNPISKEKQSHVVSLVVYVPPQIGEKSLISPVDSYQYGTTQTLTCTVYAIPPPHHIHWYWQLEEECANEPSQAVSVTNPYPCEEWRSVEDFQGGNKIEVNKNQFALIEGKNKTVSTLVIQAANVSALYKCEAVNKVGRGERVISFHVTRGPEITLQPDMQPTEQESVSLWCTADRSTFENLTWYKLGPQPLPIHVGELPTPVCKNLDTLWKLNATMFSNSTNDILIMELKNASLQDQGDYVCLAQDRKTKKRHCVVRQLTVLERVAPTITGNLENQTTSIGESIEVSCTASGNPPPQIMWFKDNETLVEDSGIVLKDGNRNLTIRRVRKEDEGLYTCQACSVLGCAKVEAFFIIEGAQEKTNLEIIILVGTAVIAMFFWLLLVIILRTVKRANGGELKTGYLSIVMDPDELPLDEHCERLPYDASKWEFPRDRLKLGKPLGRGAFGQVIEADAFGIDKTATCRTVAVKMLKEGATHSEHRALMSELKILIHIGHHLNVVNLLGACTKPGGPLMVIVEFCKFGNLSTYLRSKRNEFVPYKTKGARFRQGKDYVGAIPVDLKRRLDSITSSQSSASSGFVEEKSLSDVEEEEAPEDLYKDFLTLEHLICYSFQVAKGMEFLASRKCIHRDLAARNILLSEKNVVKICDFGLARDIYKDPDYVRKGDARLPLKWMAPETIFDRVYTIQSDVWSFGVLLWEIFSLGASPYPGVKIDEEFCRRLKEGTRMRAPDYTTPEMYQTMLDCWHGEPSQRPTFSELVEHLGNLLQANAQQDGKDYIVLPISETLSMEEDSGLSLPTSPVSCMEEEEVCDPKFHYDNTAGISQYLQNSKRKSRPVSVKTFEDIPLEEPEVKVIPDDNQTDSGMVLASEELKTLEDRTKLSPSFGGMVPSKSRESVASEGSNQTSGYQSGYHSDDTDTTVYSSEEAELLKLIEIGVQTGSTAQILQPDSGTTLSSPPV

Structure (SMILES)	IC50
COc1cc2ncnc(Nc3ccc(NC(=O)Nc4cc(C)no4)c(Cl)c3)c2c2c1OCCO2 [Example 8, 1-(2-chloro-4-((5-methoxy-2,3-dihydro-[1,4]dioxino[2,3-f]quinazolin-10-yl)amino)phenyl)-3-(3-methylisoxazol-5-yl)urea]	50 to 500 nM
COc1cc2ncnc(Oc3ccc(NC(=O)NC4CC4)c(Cl)c3)c2c2c1OCCO2 [Example 22, 1-(2-chloro-4-((5-methoxy-2,3-dihydro-[1,4]dioxino[2,3-f]quinazolin-10-yl)oxy)phenyl)-3-cyclopropylurea]	< 50 nM
CN1CCN(CCOc2cc3ncnc(Nc4ccc(NC(=O)NC5CC5)c(Cl)c4)c3c3c2OCCO3)CC1 [Example 83, 1-(2-chloro-4-((5-(2-(1-methylpiperazin-4-yl)ethoxy)-2,3-dihydro-[1,4]dioxino[2,3-f]quinazolin-10-yl)amino)phenyl)-3-cyclopropylurea]	50 to 500 nM
COc1cc2ncnc(Nc3ccc(NC(=O)Nc4ccc(Oc5ccccc5)cc4)c(Cl)c3)c2c2c1OCCO2 [Example 13, 1-(2-chloro-4-((5-methoxy-2,3-dihydro-[1,4]dioxino[2,3-f]quinazolin-10-yl)amino)phenyl)-3-(4-(phenoxy)phenyl)urea]	> 5000 nM
COc1cccc(NC(=O)Nc2ccc(Oc3ncnc4cc(OC)c5c(c34)OCCO5)c(Cl)c2)c1 [Example 24, 1-(3-chloro-4-((5-methoxy-2,3-dihydro-[1,4]dioxino[2,3-f]quinazolin-10-yl)oxy)phenyl)-3-(3-methoxyphenyl)urea]	< 50 nM
COCCOc1cc2ncnc(Nc3ccc(NC(=O)Nc4cc(C)no4)c(Cl)c3)c2c2c1OCCO2 [Example 39, 1-(2-chloro-4-((5-(2-methoxyethoxy)-2,3-dihydro-[1,4]dioxino[2,3-f]quinazolin-10-yl)amino)phenyl)-3-(3-methylisoxazol-5-yl)urea]	< 50 nM
COc1cc2ncnc(Nc3ccc(NC(=O)NC4CCCC4)c(Cl)c3)c2c2c1OCCO2 [Example 28, 1-(2-chloro-4-((5-methoxy-2,3-dihydro-[1,4]dioxino[2,3-f]quinazolin-10-yl)amino)phenyl)-3-cyclopentylurea]	50 to 500 nM
COc1cc2ncnc(Nc3ccc(NC(=O)NCCC(C)C)c(Cl)c3)c2c2c1OCCO2 [Example 30, 1-(2-chloro-4-((5-methoxy-2,3-dihydro-[1,4]dioxino[2,3-f]quinazolin-10-yl)amino)phenyl)-3-isopentylurea]	< 50 nM
O=C(Nc1ccc(Nc2ncnc3cc(OCCCN4CCCC4)c4c(c23)OCCO4)cc1Cl)NC1CC1 [Example 61, 1-(2-chloro-4-((5-(3-(pyrrolidin-1-yl)propoxy)-2,3-dihydro-[1,4]dioxino[2,3-f]quinazolin-10-yl)amino)phenyl)-3-cyclopropylurea]	< 50 nM
CSCCOc1cc2ncnc(Oc3ccc(NC(=O)NC4CC4)c(Cl)c3)c2c2c1OCCO2 [Example 85, 1-(2-chloro-4-(((5-(2-methylthio)ethoxy)-2,3-dihydro-[1,4]dioxino[2,3-f]quinazolin-10-yl)oxy)phenyl)-3-cyclopropylurea]	500 to 5000 nM
COCCOc1cc2ncnc(Oc3ccc(NC(=O)NC4CCCC4)c(Cl)c3)c2c2c1OCCO2 [Example 55, 1-(2-chloro-4-((5-(2-methoxyethoxy)-2,3-dihydro-[1,4]dioxino[2,3-f]quinazolin-10-yl)oxy)phenyl)-3-cyclopentylurea]	< 50 nM
COCCOc1cc2ncnc(Nc3ccc(NC(=O)NC(C)C)c(Cl)c3)c2c2c1OCCO2 [Example 40, 1-(2-chloro-4-((5-(2-methoxyethoxy)-2,3-dihydro-[1,4]dioxino[2,3-f]quinazolin-10-yl)amino)phenyl)-3-isopropylurea]	50 to 500 nM
COCCOc1cc2ncnc(Oc3ccc(NC(=O)NC4CCC4)c(Cl)c3)c2c2c1OCCO2 [Example 54, 1-(2-chloro-4-((5-(2-methoxyethoxy)-2,3-dihydro-[1,4]dioxino[2,3-f]quinazolin-10-yl)oxy)phenyl)-3-cyclobutylurea]	< 50 nM
COCCOc1cc2ncnc(Nc3ccc(NC(=O)Nc4ccc(C(F)(F)F)cc4F)c(Cl)c3)c2c2c1OCCO2 [Example 43, 1-(2-chloro-4-((5-(2-methoxyethoxy)-2,3-dihydro-[1,4]dioxino[2,3-f]quinazolin-10-yl)amino)phenyl)-3-(2-fluoro-4-(trifluoromethyl)phenyl)urea]	< 50 nM

Next, values leading:

IC50	Structure (SMILES)
< 50 nM	COc1cc(NC(=O)Nc2ccc(Oc3ncnc4cc(OC)c5c(c34)OCCO5)c(Cl)c2)ccn1 [Example 26, 1-(3-chloro-4-((5-methoxy-2,3-dihydro-[1,4]dioxino[2,3-f]quinazolin-10-yl)oxy)phenyl)-3-(2-methoxypyridin-4-yl)urea]
< 50 nM	COc1cc2ncnc(Oc3ccc(NC(=O)Nc4ccc(F)cc4F)c(F)c3)c2c2c1OCCO2 [Example 21, 1-(2,4-difluorophenyl)-3-(2-fluoro-4-((5-methoxy-2,3-dihydro-[1,4]dioxino[2,3-f]quinazolin-10-yl)oxy)phenyl)urea]
50 to 500 nM	CN(C)CCOc1cc2ncnc(Nc3ccc(NC(=O)NC4CC4)c(Cl)c3)c2c2c1OCCO2 [Example 87]
> 5000 nM	COCCOc1cc2ncnc(Nc3ccc(NC(=O)Nc4ccccn4)c(Cl)c3)c2c2c1OCCO2 [Example 36, 1-(2-chloro-4-((5-(2-methoxyethoxy)-2,3-dihydro-[1,4]dioxino[2,3-f]quinazolin-10-yl)amino)phenyl)-3-(pyridin-2-yl)urea]
> 5000 nM	O=C(Nc1ccc(Oc2ncnc3cc(OCCN4CCCC4)c4c(c23)OCCO4)cc1)Nc1cc(C(F)(F)F)ccc1F [Example 76, 1-(2-fluoro-5-(trifluoromethyl)phenyl)-3-(4-((5-(2-(tetrahydropyrrol-1-yl)ethoxy)-2,3-dihydro-[1,4]dioxino[2,3-f]quinazolin-10-yl)oxy)phenyl)urea]
< 50 nM	O=C(Nc1ccc(Oc2ncnc3cc(OCCCN4CCS(=O)(=O)CC4)c4c(c23)OCCO4)cc1)Nc1cc(C(F)(F)F)ccc1F [Example 81, 1-(4-((5-(3-(1,1-dioxidothiomorpholino)propoxy)-2,3-dihydro-[1,4]dioxino[2,3-f]quinazolin-10-yl)oxy)phenyl)-3-(2-fluoro-5-(trifluoromethyl)phenyl)urea]
< 50 nM	COc1cc2ncnc(Nc3ccc(NC(=O)Nc4ccc(C(F)(F)F)cc4F)c(Cl)c3)c2c2c1OCCO2 [Example 12, 1-(2-chloro-4-((5-methoxy-2,3-dihydro-[1,4]dioxino[2,3-f]quinazolin-10-yl)amino)phenyl)-3-(2-fluoro-4-(trifluoromethyl)phenyl)urea]
< 50 nM	O=C(Nc1ccc(Oc2ncnc3cc(OCCCN4CCOCC4)c4c(c23)OCCO4)cc1)Nc1ccc(F)c(Cl)c1 [Example 74, 1-(3-chloro-4-fluorophenyl)-3-(4-((5-(3-morpholinopropoxy)-2,3-dihydro-[1,4]dioxino[2,3-f]quinazolin-10-yl)oxy)phenyl)urea]
< 50 nM	COc1cc(NC(=O)Nc2ccc(Nc3ncnc4cc(OC)c5c(c34)OCCO5)cc2Cl)ccn1 [Example 10, 1-(2-chloro-4-((5-methoxy-2,3-dihydro-[1,4]dioxino[2,3-f]quinazolin-10-yl)amino)phenyl)-3-(2-methoxypyridin-4-yl)urea]
50 to 500 nM	COc1cccc(NC(=O)Nc2ccc(Nc3ncnc4cc(OC)c5c(c34)OCCO5)cc2)c1 [Example 3, 1-(4-((5-methoxy-2,3-dihydro-[1,4]dioxino[2,3-f]quinazolin-10-yl)amino)phenyl)-3-(3-methoxyphenyl)urea]
< 50 nM	COCCOc1cc2ncnc(Oc3ccc(NC(=O)Nc4cc(C(F)(F)F)ccc4F)cc3F)c2c2c1OCCO2 [Example 58, 1-(3-fluoro-4-((5-(2-methoxyethoxy)-2,3-dihydro-[1,4]dioxino[2,3-f]quinazolin-10-yl)oxy)phenyl)-3-(2-fluoro-5-(trifluoromethyl)phenyl)urea]
50 to 500 nM	COCCOc1cc2nccc(Oc3ccc(NC(=O)Nc4ccc(Cl)c(C(F)(F)F)c4)cc3F)c2c2c1OCCO2 [Example 94, 1-(4-chloro-3-(trifluoromethyl)phenyl)-3-(3-fluoro-4-((5-(2-methoxyethoxy)-2,3-dihydro-[1,4]dioxino[2,3-f]quinoline-10-yl)oxy)phenyl)urea]
< 50 nM	COc1cc2ncnc(Oc3ccc(NC(=O)NC4CCCC4)c(Cl)c3)c2c2c1OCCO2 [Example 32, 1-(2-chloro-4-((5-methoxy-2,3-dihydro-[1,4]dioxino[2,3-f]quinazolin-10-yl)oxy)phenyl)-3-cyclopentylurea]
50 to 500 nM	COCCOc1cc2ncnc(Oc3ccc(NC(=O)Nc4ccc(Cl)c(C(F)(F)F)c4)cn3)c2c2c1OCCO2 [Example 60, 1-(4-chloro-3-(trifluoromethyl)phenyl)-3-(6-((5-(2-methoxyethoxy)-2,3-dihydro-[1,4]dioxino[2,3-f]quinazolin-10-yl)oxy)pyridin-3-yl)urea]
< 50 nM	COc1cc2ncnc(Oc3ccc(NC(=O)Nc4ccccc4)c(Cl)c3)c2c2c1OCCO2 [Example 14, 1-(2-chloro-4-((5-methoxy-2,3-dihydro-[1,4]dioxino[2,3-f]quinazolin-10-yl)oxy)phenyl)-3-phenylurea]
< 50 nM	COCCOc1cc2ncnc(Nc3ccc(NC(=O)Nc4cccc(OC)c4)c(Cl)c3)c2c2c1OCCO2 [Example 35, 1-(2-chloro-4-((5-(2-methoxyethoxy)-2,3-dihydro-[1,4]dioxino[2,3-f]quinazolin-10-yl)amino)phenyl)-3-(3-methoxyphenyl)urea]
< 50 nM	COc1cc2ncnc(Oc3ccc(NC(=O)NC(C)C)c(Cl)c3)c2c2c1OCCO2 [Example 15, 1-(2-chloro-4-((5-methoxy-2,3-dihydro-[1,4]dioxino[2,3-f]quinazolin-10-yl)oxy)phenyl)-3-isopropylurea]
